Experimental data as given in ChEMBL document CHEMBL1201862, “PubChem BioAssay data set” (2004).
Activity calls are given as the source filed them.

Key:
[1] = target: T1, Interleukin-8 (Homo sapiens, UniProt P10145); test: Dose Response confirmation of uHTS small molecule hits for cystic fibrosis induced NFkb Inhibitors in a TNFa-induced IL8 counterscreen.; type: functional; conditions: read-out: IC50_Mean
[2] = target: T1, Interleukin-8; test: Dose Response confirmation of uHTS small molecule hits for cystic fibrosis induced NFkb Inhibitors in a PAF-induced IL8 counterscreen.; type: functional; conditions: read-out: IC50_Mean
[3] = Shn3 3'UTR reporter inhibitors, dose response, cell-based, Clone20 osteoblasts, firefly luciferase, cherry-picked (AID 624132); type: functional;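 further: firefly luciferase luminescence from reporter carrying the Shn3 3'UTR in osteoblasts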
[4] = target: Mu-type opioid receptor (Homo sapiens, UniProt P35372); test: Counterscreen for agonists of heterodimerization of the mu 1 (OPRM1) and delta 1 (OPRD1) opioid receptors: Luminescence-based cell-based high throughput dose response assay to identify agonists of OPRM1 homodimerization.; type: functional;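 further: U2OS cells expressing OPRM1 and beta-arrestin as split beta-galactosidase partners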
[5] = control 3'UTR Renilla luciferase suppression, dose response, counter-screen for Shn3 inhibitor project, cell-based, Clone20-Shn3RL, cherry-picked (AID 624133); type: functional
[6] = HepG2 cell cytotoxicity, dose response, cytotoxicity control for Shn3 inhibitor project, CellTiter-Glo, cherry-picked (AID 624134); type: functional, cell-based
[7] = target: Delta-type opioid receptor (Homo sapiens, UniProt P41143); test: Counterscreen for agonists of heterodimerization of the mu 1 (OPRM1) and delta 1 (OPRD1) opioid receptors: Luminescence-based cell-based high throughput dose response assay to identify agonists of OPRD1 homodimerization. [Related pubchem assays (depositor defined):AID504326, AID504355, AID504692, AID504904, AID504905]; type: functional
[8] = target: Nonstructural protein 1 (Influenza A virus, UniProt Q194T2); type: functional, Influenza A virus (A/California/07/2009(H1N1))
[9] = target: Ras and Rab interactor 1/Tyrosine-protein kinase ABL1 (Homo sapiens, UniProt P00519+Q13671); type: functional;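 further: biochemical TR-FRET dose-response test measuring inhibition of binding between Rin1 and Abl proteins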
[10] = target: 5-hydroxytryptamine receptor 5A (Homo sapiens, UniProt P47898); test: Counterscreen for agonists of OPRM1-OPRD1 heterodimerization: luminescence-based cell-based high throughput dose response assay to identify agonists of 5-hydroxytryptamine (serotonin) 5A receptor (HTR5A). [Related pubchem assays (depositor defined):AID504326, AID504355, AID504692, AID504904, AID504905]; type: functional
[11] = target: T2, Apoptotic protease-activating factor 1 (Homo sapiens, UniProt O14727); test: SAR analysis of small molecule Activators of Apaf-1 in a Fluorescent assay.; type: functional; conditions: read-out: EC50_Mean;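 further: caspase-3 cleavage of fluorogenic Rh110 DEVD substrate downstream of apoptosome activation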
T2 sequence (O14727 whole entry): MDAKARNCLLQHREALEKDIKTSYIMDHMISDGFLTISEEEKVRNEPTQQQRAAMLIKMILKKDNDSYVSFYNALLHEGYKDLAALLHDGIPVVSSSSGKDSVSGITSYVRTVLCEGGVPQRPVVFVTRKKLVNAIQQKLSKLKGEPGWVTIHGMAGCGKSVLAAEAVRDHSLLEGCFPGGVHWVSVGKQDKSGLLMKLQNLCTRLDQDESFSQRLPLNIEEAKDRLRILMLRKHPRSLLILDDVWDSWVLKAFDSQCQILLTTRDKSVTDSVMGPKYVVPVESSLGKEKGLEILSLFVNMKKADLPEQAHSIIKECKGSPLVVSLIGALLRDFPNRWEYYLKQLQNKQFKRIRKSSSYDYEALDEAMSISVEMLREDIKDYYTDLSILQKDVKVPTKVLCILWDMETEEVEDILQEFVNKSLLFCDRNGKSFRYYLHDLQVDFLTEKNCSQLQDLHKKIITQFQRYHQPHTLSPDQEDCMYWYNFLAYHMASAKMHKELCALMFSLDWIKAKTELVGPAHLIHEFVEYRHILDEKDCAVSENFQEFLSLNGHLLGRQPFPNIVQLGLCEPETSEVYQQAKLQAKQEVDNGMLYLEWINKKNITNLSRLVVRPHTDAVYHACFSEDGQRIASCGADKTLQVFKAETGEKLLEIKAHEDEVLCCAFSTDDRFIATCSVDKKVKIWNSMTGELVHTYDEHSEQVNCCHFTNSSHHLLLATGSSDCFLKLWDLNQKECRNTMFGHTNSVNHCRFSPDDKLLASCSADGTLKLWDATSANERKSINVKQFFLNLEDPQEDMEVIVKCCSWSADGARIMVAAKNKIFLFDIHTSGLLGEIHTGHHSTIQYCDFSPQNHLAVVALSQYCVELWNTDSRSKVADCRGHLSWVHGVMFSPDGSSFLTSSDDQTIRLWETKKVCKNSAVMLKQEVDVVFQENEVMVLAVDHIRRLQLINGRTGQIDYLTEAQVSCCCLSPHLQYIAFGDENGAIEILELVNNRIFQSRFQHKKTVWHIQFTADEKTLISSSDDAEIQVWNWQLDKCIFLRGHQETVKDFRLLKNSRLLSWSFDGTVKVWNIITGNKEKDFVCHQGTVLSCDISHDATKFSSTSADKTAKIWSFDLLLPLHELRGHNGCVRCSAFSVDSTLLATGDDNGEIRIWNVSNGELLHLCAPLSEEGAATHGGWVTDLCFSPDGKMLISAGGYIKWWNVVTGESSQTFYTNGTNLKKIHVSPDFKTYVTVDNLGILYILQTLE

[12] = target: Melanin-concentrating hormone receptor 1 (Homo sapiens, UniProt Q99705); test: Late-stage fluorescence-based counterscreen for antagonists of the G-protein coupled receptor 7 (GPR7): cell-based dose response assay to identify antagonists of the melanin-concentrating hormone receptor 1 (MCHR1) Set 6.; type: functional
[13] = target: Neuropeptides B/W receptor type 1 (Homo sapiens, UniProt P48145); test: GPR7 antagonist potency, late-stage follow-up, cell-based, fluorescence, dose response, set 6 (AID 588583); type: functional
[14] = cytotoxicity toward NIH3T3 fibroblasts, dose response, counter-screen, cell-based, ATP luminescence, mouse fibroblasts (AID 2010); type: functional;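 further: cells exposed to compound for about 90 hours before reading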
[15] = target: Prothrombin (Bos taurus, UniProt P00735); test: thrombin inhibition, dose response, biochemical, fluorescence polarization, uHTS hits (AID 602369); type: functional
[16] = inhibitors of intracellular T. cruzi replication, confirmation, NIH3T3 host cells, beta-gal luminescence (AID 2044); type: functional, cell-based;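 further: intracellular parasites grown in NIH/3T3 mouse fibroblasts as host cells; luminescent beta-galactosidase reporter signal from transgenic T. cruzi replicating inside host cells; inhibitors lower the luminescence signal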
[17] = test system: Streptococcus sp. 'group A'; test: growth inhibition of control SK(-) GAS strain, dose response, counter-screen for streptokinase expression inhibitor project, luminescence, kanamycin, BacTiterGlo, confirmation (AID 1900); type: functional, organism-based
[18] = target: 72 kDa type IV collagenase (Homo sapiens, UniProt P08253); test: Dose Response validation of uHTS RPN11 inhibitor hits using a MMP-2 Fluorescence assay.; type: functional
[19] = target: T3, Replicative DNA helicase DnaB (Mycobacterium tuberculosis, UniProt P9WMR3); test: DnaB intein splicing inhibitors, dose response, biochemical, cell-free fluorescence (AID 449749); type: functional
T3 sequence (P9WMR3 whole entry): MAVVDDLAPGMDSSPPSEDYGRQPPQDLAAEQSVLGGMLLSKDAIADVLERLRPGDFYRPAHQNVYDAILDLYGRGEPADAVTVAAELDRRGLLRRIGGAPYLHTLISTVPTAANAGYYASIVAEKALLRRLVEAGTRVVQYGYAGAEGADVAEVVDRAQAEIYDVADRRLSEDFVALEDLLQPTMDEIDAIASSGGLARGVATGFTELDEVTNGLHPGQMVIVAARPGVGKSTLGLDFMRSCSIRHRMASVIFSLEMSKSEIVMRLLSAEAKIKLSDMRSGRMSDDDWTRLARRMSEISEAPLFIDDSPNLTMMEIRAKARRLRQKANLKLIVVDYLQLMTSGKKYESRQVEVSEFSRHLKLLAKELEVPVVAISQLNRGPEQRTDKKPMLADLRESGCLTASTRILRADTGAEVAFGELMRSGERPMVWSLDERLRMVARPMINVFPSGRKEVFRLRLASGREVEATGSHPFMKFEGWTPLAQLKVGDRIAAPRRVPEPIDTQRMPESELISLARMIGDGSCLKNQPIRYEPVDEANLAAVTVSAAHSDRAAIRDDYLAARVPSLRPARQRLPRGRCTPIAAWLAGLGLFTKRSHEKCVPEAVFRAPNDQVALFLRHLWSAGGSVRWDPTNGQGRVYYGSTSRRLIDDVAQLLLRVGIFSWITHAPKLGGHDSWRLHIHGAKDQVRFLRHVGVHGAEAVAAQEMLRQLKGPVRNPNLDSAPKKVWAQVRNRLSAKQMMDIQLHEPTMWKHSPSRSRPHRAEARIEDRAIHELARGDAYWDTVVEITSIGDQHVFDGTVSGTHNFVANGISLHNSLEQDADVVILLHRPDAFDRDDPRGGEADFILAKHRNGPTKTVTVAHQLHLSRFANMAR

[20] = test system: Streptococcus; test: Group A Streptococcus viability loss, dose response, counter-screen for streptokinase expression inhibitor project, luminescence, BacTiterGlo (AID 1915); type: functional, organism-based;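 further: potency for reduction of bacterial viability or growth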
[21] = target: T4, Protein RecA (Mycobacterium tuberculosis, UniProt P9WHJ3); test: Fluorescence Cell-Free Homogeneous Dose Retest to Identify Inhibitors of RecA-Intein Splicing Activity. [Related pubchem assays (depositor defined):AID2097, AID2223, AID489010, AID492950]; type: functional
T4 sequence (P9WHJ3 whole entry): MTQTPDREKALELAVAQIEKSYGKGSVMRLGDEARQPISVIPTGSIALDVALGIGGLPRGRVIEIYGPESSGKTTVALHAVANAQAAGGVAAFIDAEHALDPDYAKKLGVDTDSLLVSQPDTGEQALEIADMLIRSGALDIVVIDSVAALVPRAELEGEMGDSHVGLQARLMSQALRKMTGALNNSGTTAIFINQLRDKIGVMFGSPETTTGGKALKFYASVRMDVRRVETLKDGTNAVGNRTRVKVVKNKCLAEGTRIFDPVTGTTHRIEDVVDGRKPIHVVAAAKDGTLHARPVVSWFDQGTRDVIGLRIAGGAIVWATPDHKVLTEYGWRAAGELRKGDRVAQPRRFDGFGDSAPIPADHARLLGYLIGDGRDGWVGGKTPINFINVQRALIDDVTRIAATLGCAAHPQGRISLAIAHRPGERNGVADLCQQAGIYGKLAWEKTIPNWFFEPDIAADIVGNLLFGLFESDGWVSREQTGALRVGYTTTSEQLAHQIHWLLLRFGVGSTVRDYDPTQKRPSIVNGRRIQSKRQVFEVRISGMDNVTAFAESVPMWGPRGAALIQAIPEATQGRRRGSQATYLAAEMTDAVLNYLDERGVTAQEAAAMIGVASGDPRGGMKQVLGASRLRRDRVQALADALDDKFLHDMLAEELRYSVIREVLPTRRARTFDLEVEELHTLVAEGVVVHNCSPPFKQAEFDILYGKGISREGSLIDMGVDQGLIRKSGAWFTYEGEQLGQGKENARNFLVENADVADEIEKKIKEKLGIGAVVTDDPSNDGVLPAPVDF

[22] = target: T5, Streptokinase A (Streptococcus pyogenes serotype M1, UniProt P10520); test: S. pyogenes streptokinase expression inhibitors, potency, dose response, plasminogen activation absorbance, OD405 (AID 1914); type: functional, Streptococcus pyogenes M1 GAS;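 further: secreted streptokinase activity via plasminogen activation per viability signal from cell pellet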
T5 sequence (P10520 whole entry): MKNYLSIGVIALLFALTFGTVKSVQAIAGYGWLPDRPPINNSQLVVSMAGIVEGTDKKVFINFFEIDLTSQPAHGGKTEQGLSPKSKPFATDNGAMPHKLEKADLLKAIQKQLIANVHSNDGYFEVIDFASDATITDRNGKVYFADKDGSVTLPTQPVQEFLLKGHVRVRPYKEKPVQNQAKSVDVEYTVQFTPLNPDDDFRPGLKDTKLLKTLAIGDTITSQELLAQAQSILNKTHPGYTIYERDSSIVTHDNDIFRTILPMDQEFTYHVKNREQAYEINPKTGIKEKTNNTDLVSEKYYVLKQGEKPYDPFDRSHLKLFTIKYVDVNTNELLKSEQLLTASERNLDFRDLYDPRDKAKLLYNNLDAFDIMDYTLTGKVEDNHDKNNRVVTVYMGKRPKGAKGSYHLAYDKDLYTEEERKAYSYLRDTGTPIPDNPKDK

[23] = target: 26S proteasome non-ATPase regulatory subunit 14 (Homo sapiens, UniProt O00487); test: inhibition of proteasome subunit RPN11 – biochemical, fluorescence polarization, uHTS hits, confirmation (AID 602368); type: functional
26S proteasome non-ATPase regulatory subunit 14, sequence (O00487 whole entry): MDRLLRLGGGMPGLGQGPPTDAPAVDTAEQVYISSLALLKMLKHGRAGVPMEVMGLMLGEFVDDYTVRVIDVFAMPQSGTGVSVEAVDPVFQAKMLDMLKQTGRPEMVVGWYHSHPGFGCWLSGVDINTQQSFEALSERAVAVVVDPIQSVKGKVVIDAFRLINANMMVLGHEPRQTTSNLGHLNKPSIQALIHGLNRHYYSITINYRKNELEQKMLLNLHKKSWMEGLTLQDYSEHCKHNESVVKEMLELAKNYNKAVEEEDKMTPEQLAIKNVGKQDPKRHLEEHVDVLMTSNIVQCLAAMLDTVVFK

Neuropeptides B/W receptor type 1, sequence (P48145 whole entry): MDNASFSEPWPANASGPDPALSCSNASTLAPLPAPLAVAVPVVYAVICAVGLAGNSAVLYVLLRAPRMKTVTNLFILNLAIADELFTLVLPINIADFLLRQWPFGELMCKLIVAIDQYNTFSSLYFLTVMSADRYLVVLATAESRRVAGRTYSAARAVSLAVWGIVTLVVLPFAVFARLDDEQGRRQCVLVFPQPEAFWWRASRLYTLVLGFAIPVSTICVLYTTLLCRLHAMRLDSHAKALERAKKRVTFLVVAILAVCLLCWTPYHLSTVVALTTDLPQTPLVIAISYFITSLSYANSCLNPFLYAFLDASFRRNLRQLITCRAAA
Melanin-concentrating hormone receptor 1, sequence (Q99705 whole entry): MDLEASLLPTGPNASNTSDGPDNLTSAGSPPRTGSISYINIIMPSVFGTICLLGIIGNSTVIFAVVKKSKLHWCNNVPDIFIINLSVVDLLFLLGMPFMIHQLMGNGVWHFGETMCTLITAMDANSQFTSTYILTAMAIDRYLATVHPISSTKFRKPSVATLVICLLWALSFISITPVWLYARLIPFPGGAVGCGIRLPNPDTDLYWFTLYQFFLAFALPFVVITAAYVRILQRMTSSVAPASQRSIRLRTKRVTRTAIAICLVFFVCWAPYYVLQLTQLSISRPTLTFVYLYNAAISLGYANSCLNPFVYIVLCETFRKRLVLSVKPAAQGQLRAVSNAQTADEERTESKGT
T1 sequence (P10145 whole entry): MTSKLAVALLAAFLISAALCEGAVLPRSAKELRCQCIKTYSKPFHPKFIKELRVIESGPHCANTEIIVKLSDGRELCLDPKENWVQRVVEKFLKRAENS
5-hydroxytryptamine receptor 5A, sequence (P47898 whole entry): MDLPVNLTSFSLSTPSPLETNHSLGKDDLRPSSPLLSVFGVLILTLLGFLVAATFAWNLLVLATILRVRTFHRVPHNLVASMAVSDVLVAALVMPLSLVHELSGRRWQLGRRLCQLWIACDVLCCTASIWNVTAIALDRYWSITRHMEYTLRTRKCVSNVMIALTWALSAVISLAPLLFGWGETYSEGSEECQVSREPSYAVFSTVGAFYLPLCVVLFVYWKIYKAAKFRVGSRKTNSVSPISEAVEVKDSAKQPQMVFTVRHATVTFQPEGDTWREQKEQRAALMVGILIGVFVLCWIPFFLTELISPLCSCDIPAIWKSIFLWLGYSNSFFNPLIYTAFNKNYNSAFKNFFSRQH
Mu-type opioid receptor, sequence (P35372 whole entry): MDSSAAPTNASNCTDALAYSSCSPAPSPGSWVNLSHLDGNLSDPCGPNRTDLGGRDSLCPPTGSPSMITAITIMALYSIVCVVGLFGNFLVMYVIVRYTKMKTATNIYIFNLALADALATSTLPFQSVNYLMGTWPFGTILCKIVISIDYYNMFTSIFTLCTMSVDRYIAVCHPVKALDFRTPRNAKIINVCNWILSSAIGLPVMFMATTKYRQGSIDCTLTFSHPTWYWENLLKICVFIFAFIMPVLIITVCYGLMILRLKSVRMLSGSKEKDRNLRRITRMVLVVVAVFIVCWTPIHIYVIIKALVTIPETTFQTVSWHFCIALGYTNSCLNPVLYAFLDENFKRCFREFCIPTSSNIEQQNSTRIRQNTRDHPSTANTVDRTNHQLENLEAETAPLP
72 kDa type IV collagenase, sequence (P08253 whole entry): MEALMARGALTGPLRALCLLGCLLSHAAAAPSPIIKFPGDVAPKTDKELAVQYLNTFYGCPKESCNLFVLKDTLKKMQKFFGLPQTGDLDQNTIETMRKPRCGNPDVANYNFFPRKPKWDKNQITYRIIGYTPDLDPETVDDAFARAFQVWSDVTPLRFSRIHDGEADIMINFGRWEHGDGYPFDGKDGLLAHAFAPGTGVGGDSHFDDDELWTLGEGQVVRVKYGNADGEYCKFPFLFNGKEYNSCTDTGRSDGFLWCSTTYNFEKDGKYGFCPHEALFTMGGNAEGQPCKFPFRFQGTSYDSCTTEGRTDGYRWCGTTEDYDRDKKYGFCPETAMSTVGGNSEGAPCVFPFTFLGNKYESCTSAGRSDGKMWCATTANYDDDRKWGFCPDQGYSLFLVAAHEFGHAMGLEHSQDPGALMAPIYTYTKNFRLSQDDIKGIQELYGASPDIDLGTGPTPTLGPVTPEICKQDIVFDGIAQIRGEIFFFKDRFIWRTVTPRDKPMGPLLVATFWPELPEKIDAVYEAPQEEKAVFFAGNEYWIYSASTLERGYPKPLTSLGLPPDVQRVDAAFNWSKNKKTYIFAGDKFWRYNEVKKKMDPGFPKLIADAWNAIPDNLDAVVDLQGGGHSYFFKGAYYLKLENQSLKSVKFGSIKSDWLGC
Nonstructural protein 1, sequence (Q194T2 whole entry): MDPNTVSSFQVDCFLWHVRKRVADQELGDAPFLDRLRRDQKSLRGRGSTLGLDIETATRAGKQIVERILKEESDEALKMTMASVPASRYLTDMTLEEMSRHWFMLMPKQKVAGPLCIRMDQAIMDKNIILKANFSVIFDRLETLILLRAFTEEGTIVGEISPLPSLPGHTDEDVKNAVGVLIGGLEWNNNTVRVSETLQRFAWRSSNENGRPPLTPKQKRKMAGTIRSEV
Delta-type opioid receptor, sequence (P41143 whole entry): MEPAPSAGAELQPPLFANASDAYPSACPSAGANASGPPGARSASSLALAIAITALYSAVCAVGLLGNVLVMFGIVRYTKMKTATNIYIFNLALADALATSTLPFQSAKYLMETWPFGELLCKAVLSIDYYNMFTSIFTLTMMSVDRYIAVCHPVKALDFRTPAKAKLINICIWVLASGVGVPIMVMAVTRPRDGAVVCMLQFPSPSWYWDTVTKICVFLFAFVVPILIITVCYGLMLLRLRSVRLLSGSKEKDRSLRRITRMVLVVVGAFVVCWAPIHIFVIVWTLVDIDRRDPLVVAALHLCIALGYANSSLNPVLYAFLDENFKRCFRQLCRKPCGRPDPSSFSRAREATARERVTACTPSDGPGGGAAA

## Fc1cccc(Cl)c1/C=N/Nc1c(Cl)cncc1Cl
[1]
  IC50: > 79 µM (inactive)
[2]
  IC50: 14.8 µM (inactive)

## Cc1nc2nc(C)n(CCN3CCOCC3)c(=O)c2c(-c2cccc([N+](=O)[O-])c2)c1C(=O)CCCCCCCCCCN1CCC(c2ccccc2)(c2ccccc2)CC1
[3]
  AC50: 7.38 µM (active)
[4]
  EC50: > 92.4 µM (inactive)
[5]
  AC50: 11.3 µM (active)
[6]
  AC50: 14.7 µM (active)
[7]
  EC50: > 92.4 µM (inactive)
[8]
  IC50: 21.9 µM (active)
[9]
  IC50: 1.35 µM (active)
[10]
  EC50: > 92.4 µM (inactive)

## Cc1cc(C)c(O)c(N2CC(C(=O)O)CC2=O)c1 (stereo not given)
[11]
  EC50: > 100 µM (inactive)

## COc1ccc(Oc2c(Cl)cnn(Cc3ccccc3Br)c2=O)cc1
[12]
  IC50: 0.506 µM (active)
[13]
  IC50: 0.506 µM (active)

## Nc1c(-c2ccccc2)c(CSc2nc3ccccc3[nH]2)nn1-c1cccc(Cl)c1
[14]
  EC50: > 60 µM (not active)
[15]
  IC50: 41.5 µM (active)
[16]
  EC50: 1.17 µM (active)
[17]
  EC50: 2.14 µM (active)
[18]
  IC50: > 100 µM (inactive)
[19]
  AC50: 3.17 µM (active)
[20]
  EC50: > 150 µM (not active)
[21]
  EC50: 2.71 µM (active)
[22]
  EC50: > 150 µM (not active)
[23]
  IC50: 34 µM (active)

## CC(C#N)(c1ccccc1)c1c(Br)cnn(Cc2cccc3ccccc23)c1=O (stereo not given)
[12]
  IC50: 0.326 µM (active)
[13]
  IC50: 0.326 µM (active)
